Laboratory results from US10335503B2, “Compound that specifically binds to AMPA receptor” (Public University Corporation Yokohama City University, priority 2015, dated 2019).

Assays:
Details in all cases: K-2 at 1 × 10^−7 mol/L
VIP 1 = VIP 1 (Homo sapiens, UniProt P32241); test: Receptor binding panel: VIP 1
Adenosine A1 = Adenosine A1 (Homo sapiens, UniProt P30542); test: Receptor binding panel: Adenosine A1
Dopamine D1 = Dopamine D1 (Homo sapiens, UniProt P21728); test: Receptor binding panel: Dopamine D1
Sequence of Dopamine D1 (P21728 whole entry): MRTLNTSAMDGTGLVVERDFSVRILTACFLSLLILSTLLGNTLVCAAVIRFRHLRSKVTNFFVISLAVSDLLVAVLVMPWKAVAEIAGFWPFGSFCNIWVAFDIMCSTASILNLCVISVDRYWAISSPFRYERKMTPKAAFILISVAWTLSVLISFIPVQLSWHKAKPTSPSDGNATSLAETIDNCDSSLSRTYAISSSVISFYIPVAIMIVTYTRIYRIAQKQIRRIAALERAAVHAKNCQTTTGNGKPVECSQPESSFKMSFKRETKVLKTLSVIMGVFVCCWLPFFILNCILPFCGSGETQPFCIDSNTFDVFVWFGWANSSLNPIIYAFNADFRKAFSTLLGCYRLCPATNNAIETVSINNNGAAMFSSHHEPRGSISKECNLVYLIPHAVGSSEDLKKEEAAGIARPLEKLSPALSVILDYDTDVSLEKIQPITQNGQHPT

K Channel KATP = test: Receptor binding panel: K Channel KATP
Opiate δ = Opiate δ (Homo sapiens, UniProt P41143); test: Receptor binding panel: Opiate δ
Sequence of Opiate δ (P41143 whole entry): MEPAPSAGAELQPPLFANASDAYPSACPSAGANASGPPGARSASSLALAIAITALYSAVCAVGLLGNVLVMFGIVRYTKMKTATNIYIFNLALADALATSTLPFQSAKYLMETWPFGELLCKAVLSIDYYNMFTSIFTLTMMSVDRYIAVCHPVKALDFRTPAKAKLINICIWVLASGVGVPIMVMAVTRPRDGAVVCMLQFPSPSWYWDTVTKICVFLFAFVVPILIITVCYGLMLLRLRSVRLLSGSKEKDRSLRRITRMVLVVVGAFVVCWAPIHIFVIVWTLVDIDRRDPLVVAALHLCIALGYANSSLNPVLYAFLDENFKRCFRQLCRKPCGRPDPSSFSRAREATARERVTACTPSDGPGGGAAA

Neurokinin NK1 = Neurokinin NK1 (Homo sapiens, UniProt P25103); test: Receptor binding panel: Neurokinin NK1
Sequence of Neurokinin NK1 (P25103 whole entry): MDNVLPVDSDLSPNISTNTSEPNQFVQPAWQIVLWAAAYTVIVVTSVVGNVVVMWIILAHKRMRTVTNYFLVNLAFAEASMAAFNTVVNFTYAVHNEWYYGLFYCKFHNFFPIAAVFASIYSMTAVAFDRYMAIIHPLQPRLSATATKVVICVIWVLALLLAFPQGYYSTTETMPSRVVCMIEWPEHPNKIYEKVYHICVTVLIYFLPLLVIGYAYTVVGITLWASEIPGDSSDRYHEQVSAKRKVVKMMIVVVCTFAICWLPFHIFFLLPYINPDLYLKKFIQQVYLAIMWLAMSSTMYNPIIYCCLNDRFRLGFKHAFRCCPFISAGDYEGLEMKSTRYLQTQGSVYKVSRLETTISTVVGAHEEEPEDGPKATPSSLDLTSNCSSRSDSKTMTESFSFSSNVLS

Ca channel (Type N) = Ca channel (Type N) (Homo sapiens, UniProt Q00975); test: Receptor binding panel: Ca channel (Type N)
Dopamine D2 short = Dopamine D2 short (Homo sapiens, UniProt P14416); test: Receptor binding panel: Dopamine D2 short
Sequence of Dopamine D2 short (P14416 1-414 isoform P14416-2): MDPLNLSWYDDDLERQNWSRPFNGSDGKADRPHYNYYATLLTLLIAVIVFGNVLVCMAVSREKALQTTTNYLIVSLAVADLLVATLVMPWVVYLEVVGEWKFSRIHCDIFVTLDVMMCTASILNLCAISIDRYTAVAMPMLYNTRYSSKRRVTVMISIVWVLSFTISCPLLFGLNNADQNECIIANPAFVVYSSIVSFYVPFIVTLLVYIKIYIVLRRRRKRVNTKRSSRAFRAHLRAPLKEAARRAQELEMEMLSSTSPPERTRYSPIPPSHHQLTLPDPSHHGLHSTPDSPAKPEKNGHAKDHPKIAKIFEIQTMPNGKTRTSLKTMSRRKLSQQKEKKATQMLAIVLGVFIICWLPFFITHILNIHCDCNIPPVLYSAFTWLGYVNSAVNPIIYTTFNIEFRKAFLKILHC

Na channel site 2 = test: Receptor binding panel: Na channel site 2
α1B-Adrenergic = α1B-Adrenergic (Homo sapiens, UniProt P35368); test: Receptor binding panel: α1B-Adrenergic
Sequence of α1B-Adrenergic (P35368 whole entry): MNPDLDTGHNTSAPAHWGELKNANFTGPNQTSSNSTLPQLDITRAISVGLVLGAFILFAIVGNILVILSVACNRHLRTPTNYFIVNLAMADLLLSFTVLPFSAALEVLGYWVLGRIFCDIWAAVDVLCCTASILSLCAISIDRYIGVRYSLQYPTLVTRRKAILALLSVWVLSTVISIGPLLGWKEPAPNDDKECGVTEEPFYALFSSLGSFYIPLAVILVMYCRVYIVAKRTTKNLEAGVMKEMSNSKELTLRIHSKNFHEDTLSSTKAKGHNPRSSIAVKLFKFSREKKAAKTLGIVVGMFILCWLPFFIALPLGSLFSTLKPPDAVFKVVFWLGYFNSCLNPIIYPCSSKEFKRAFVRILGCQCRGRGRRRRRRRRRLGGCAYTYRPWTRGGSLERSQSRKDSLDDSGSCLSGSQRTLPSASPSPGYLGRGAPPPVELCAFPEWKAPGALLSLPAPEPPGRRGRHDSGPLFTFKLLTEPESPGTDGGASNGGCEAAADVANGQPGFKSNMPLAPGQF

Nicotinic = test: Receptor binding panel: Nicotinic; parameters: species or system Human
Muscarinic M1 = Muscarinic M1 (Homo sapiens, UniProt P11229); test: Receptor binding panel: Muscarinic M1
Sequence of Muscarinic M1 (P11229 whole entry): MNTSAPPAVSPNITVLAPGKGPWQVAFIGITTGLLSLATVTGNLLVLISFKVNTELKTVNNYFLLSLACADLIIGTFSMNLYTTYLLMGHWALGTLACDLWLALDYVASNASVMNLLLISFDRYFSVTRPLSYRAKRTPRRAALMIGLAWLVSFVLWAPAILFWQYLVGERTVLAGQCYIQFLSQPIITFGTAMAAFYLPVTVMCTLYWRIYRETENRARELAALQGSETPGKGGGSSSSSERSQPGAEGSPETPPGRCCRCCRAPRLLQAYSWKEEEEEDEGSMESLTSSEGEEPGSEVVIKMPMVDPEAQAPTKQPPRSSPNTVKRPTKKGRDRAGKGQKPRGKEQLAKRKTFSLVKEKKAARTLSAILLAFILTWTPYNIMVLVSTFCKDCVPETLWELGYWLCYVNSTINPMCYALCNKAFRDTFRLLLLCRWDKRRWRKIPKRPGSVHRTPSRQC

[1] = system: Glutamate (NMDA agonist site); test: Receptor binding panel: Glutamate (NMDA agonist site)
Glutamate (AMPA) = test: Receptor binding panel: Glutamate (AMPA)
CRF1 = biological target: T1, CRF1 (Homo sapiens, UniProt P34998); test: Receptor binding panel: CRF1
T1 sequence (P34998 24-415): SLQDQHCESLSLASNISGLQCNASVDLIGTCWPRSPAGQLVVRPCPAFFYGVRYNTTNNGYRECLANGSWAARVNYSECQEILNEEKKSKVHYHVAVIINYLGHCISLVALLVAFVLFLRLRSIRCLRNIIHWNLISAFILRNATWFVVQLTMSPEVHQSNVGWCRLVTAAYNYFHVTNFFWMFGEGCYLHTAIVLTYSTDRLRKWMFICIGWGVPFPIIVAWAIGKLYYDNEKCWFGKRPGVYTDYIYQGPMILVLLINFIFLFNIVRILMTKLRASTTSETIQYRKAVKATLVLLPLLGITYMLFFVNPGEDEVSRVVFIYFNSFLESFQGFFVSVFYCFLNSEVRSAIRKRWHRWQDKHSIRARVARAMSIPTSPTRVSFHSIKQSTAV

Bradykinin B2 = Bradykinin B2 (Homo sapiens, UniProt P30411); test: Receptor binding panel: Bradykinin B2
Histamine H2 = Histamine H2 (Homo sapiens, UniProt P25021); test: Receptor binding panel: Histamine H2
Sigma σ2 = Sigma σ2 (Homo sapiens, UniProt Q5BJF2); test: Receptor binding panel: Sigma σ2
Sequence of Sigma σ2 (Q5BJF2 whole entry): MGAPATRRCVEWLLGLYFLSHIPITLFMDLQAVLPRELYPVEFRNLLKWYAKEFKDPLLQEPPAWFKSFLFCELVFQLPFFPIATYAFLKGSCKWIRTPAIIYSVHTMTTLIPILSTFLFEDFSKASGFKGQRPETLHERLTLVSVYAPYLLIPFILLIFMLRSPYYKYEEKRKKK

Histamine H1 = Histamine H1 (Homo sapiens, UniProt P35367); test: Receptor binding panel: Histamine H1
Sequence of Histamine H1 (P35367 whole entry): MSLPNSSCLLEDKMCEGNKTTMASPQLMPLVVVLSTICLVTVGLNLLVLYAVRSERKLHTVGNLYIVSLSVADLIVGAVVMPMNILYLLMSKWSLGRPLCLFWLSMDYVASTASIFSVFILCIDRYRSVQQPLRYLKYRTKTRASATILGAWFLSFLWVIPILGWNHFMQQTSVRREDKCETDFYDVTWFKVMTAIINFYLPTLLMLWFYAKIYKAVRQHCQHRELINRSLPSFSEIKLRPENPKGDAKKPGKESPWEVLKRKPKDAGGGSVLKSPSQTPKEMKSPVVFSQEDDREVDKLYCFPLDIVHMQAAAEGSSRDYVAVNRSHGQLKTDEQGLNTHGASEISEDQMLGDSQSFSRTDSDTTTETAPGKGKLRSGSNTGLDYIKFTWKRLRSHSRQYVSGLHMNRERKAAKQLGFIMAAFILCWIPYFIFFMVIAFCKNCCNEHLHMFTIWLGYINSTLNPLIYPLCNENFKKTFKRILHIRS

Serotonin 5HT3 = Serotonin 5HT3 (Homo sapiens, UniProt P46098); test: Receptor binding panel: Serotonin 5HT3
Sequence of Serotonin 5HT3 (P46098 24-478): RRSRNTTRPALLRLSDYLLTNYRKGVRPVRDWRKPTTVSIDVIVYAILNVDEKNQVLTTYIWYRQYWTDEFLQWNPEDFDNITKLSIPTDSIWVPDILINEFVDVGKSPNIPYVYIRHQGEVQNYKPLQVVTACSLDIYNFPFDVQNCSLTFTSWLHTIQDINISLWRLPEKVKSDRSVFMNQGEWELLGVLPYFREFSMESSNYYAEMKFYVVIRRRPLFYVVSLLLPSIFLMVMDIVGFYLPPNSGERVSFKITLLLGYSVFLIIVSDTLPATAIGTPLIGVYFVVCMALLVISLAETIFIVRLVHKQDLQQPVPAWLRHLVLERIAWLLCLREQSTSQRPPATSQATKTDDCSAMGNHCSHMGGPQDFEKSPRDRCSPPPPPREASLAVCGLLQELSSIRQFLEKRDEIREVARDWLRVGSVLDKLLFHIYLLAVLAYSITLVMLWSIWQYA

Sigma σ1 = Sigma σ1 (Homo sapiens, UniProt Q99720); test: Receptor binding panel: Sigma σ1
Sequence of Sigma σ1 (Q99720 whole entry): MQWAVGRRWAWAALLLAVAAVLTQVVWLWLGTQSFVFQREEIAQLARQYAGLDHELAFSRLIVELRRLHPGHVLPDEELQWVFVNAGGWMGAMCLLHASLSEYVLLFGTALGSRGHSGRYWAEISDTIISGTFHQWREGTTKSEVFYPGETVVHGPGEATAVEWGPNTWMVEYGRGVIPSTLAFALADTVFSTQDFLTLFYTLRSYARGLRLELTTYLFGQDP

Sequence of Adenosine A1 (P30542 whole entry): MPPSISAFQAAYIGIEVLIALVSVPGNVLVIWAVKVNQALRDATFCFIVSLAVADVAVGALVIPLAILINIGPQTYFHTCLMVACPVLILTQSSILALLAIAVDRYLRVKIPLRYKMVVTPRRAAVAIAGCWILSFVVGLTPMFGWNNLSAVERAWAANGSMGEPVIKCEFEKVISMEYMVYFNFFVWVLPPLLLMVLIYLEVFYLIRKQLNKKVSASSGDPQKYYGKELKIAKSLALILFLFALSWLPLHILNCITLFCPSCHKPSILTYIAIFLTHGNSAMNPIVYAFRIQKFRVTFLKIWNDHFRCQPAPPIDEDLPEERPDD
Sequence of VIP 1 (P32241 31-457): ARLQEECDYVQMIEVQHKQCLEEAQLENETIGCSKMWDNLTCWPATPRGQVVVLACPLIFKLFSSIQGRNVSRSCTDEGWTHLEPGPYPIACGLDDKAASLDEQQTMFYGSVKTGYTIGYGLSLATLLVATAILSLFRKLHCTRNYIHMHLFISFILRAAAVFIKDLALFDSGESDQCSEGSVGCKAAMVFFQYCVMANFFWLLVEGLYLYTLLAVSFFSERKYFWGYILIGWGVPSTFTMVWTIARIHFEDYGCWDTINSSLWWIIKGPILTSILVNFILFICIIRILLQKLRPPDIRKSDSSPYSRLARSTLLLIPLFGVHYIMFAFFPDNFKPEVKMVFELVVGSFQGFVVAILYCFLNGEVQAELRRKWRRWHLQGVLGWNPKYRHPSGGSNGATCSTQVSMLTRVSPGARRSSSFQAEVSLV

In the case of CN(CCSc1cc(F)c(OCC(N)=O)c(F)c1)S(=O)(=O)c1ccccc1 [K-2, {4-[2-(benzenesulfonyl-methyl-amino)-ethylsulfanil]-2,6-difluoro-phenoxy}-acetamide], the inhibition at 0.1 µM (VIP 1) is reported as 0%, the inhibition at 0.1 µM (Adenosine A1) is reported as 5.29% and the inhibition at 0.1 µM (Dopamine D1) is reported as 10.2%. For the same compound, the “Inhibition (%)” value (K Channel KATP) was 5.71%, the inhibition at 0.1 µM (Opiate δ) was 0.3% and the inhibition at 0.1 µM (Neurokinin NK1) was 0%. For the same compound, the inhibition at 0.1 µM (Ca channel (Type N)) was 0.31%, the inhibition at 0.1 µM (Dopamine D2 short) was 5.33% and the “Inhibition (%)” value (Na channel site 2) was 11.15%. For the same compound, the inhibition at 0.1 µM (α1B-Adrenergic) was 0%, the “Inhibition (%)” value (Nicotinic) was 7.17% and the inhibition at 0.1 µM (Muscarinic M1) was 2.24%. The “Inhibition (%)” value [1] was 0.57%, the “Inhibition (%)” value (Glutamate (AMPA)) was 1.74% and the inhibition at 0.1 µM (CRF1) was 1.37%. The inhibition at 0.1 µM (Bradykinin B2) was 10.3%, the inhibition at 0.1 µM (Histamine H2) was 0.79% and the inhibition at 0.1 µM (Sigma σ2) was 4.07%. For the same compound, the inhibition at 0.1 µM (Histamine H1) was 6.53%, the inhibition at 0.1 µM (Serotonin 5HT3) was 1.57% and the inhibition at 0.1 µM (Sigma σ1) was 2.88%.
